Measurements taken from patent publication US20120269830A1, “CONJUGATES WITH IMPROVED PHARMACOKINETIC PROPERTIES” (priority 2009, published 2012).

Tests used:
[1] = molecular target: Dipeptidyl protease IV (DPP-IV) (Homo sapiens, UniProt P27487); conditions: cited from earlier work
[2] = system: db/db mice; assay: Reduction of fasting blood glucose in db/db mice; assay type: in vivo; conditions: intravenous; for blood glucose at 4 and 8 hours post treatment: food access after 4 hours
Description: Synthetic GLP-1 peptide and recombinant GLP-1 Surrobody fusions were evaluated for their ability to lower plasma glucose in db/db mice. To reduce the effects of in vivo DPPIV proteolysis during the time course of the study GLP-1 both synthetic and recombinant GLP-1 functionally null Surrobodies used a GLP-1 variant containing a serine substitution for alanine at position 8 that reduces DPPIV inactivation. 8 db/db mice were used per group: Control SgG (3 mg/kg) (functionally null SgG that lacks the GLP-1 conjugate); GLP-1 peptide (0.8 mg/kg); GLP-1 SgG (1 mg/kg); and GLP-1 (3 mg/kg). Essentially db/db mice were matched by weight and relative blood glucose levels. Next, the subjects were injected intravenously with test article and isolated with access to water, but not food. Glucose levels were monitored by handheld glucometer after 1 hour and 4 hours. After 4 hours the mice were allowed free access to both food and water. An additional reading was made at 8 hours following drug administration.

Chain of Dipeptidyl protease IV (DPP-IV) (P27487 whole entry): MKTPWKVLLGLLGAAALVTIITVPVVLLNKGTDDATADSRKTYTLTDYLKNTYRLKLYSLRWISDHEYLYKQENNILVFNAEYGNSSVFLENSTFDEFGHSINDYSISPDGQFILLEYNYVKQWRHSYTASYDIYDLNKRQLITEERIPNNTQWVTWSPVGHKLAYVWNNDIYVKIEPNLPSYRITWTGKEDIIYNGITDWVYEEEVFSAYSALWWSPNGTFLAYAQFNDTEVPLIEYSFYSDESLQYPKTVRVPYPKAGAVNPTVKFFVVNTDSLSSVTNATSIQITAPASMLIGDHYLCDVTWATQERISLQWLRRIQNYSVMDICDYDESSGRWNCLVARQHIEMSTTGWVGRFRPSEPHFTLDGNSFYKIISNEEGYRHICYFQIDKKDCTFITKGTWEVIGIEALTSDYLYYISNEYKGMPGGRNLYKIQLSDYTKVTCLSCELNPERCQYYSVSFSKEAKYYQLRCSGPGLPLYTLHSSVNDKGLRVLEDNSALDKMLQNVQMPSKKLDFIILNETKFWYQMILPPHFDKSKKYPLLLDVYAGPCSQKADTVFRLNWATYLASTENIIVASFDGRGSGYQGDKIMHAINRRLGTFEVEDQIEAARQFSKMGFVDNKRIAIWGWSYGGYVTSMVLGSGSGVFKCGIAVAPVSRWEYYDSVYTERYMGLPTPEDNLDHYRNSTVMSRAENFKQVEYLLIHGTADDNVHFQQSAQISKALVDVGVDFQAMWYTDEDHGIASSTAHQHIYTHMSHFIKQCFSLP

Sequence | time to inactivation by DPP-IV [1] [min] | blood glucose reduction overall, through 8 hours ([2]; 1 and 3 mg/kg, FIG. 17) | resistance to proteolytic inactivation by DPP-IV [1] | blood glucose after 1 hour ([2]; fasted, GLP-1 SgG 1 and 3 mg/kg, GLP-1 peptide 0.8 mg/kg) | blood glucose at 4 and 8 hours post treatment ([2]; GLP-1 SgG 1 and 3 mg/kg, GLP-1 peptide 0.8 mg/kg) | blood glucose at 4 and 8 hours post treatment ([2]; GLP-1 SgG 1 and 3 mg/kg, GLP-1 peptide 0.8 mg/kg, listed as GLP-1 peptide control)
HAEGTFTSDVSSYLEGQAAKEFIAWLVKGRG [GLP-1] | ≤ 2 | acutely reduces blood glucose through 8 hours |  |  |  | 
HSEGTFTSDVSSYLEGQAAKEFIAWLVKGRG [GLP-1 peptide, GLP-1 receptor agonist with serine for alanine substitution at position 8] |  |  | markedly resistant | considerable blood glucose reduction | started to approach levels of control Surrobody | unable to maintain the same degree of blood glucose levels
